Experimental data from the NIST ThermoML archive (doi:10.1021/je049572f).

Test: xn = mol fraction of the nth substance listed
Conditions: 101.33 kPa, Liquid

CCc1ccccc1 [ethylbenzene] + CN1CCCC1=O
Conditions | mass density [kg/m3] | viscosity [mPa·s]
303.15 K, x1 = 0.094 | 1006.25 | 1.415
303.15 K, x1 = 0.1901 | 989.43 | 1.301
303.15 K, x1 = 0.2859 | 972.61 | 1.188
303.15 K, x1 = 0.3839 | 955.98 | 1.081
303.15 K, x1 = 0.4839 | 939.38 | 0.975
303.15 K, x1 = 0.5835 | 923.22 | 0.884
303.15 K, x1 = 0.6854 | 906.91 | 0.796
303.15 K, x1 = 0.7888 | 890.73 | 0.722
303.15 K, x1 = 0.8937 | 874.71 | 0.66
303.15 K, x1 = 1 | 859.95 | 0.598
313.15 K, x1 = 0.094 | 997.35 | 1.216
313.15 K, x1 = 0.1901 | 980.53 | 1.124
313.15 K, x1 = 0.2859 | 963.71 | 1.033
313.15 K, x1 = 0.3839 | 947.11 | 0.94
313.15 K, x1 = 0.4839 | 930.52 | 0.846
313.15 K, x1 = 0.5835 | 914.35 | 0.772
313.15 K, x1 = 0.6854 | 898.04 | 0.705
313.15 K, x1 = 0.7888 | 881.86 | 0.643
313.15 K, x1 = 0.8937 | 865.85 | 0.588
313.15 K, x1 = 1 | 851.14 | 0.537
323.15 K, x1 = 0.094 | 988.46 | 1.057
323.15 K, x1 = 0.1901 | 971.63 | 0.982
323.15 K, x1 = 0.2859 | 954.81 | 0.904
323.15 K, x1 = 0.3839 | 938.2 | 0.829
323.15 K, x1 = 0.4839 | 921.64 | 0.75
323.15 K, x1 = 0.5835 | 905.4 | 0.688
323.15 K, x1 = 0.6854 | 889.1 | 0.629
323.15 K, x1 = 0.7888 | 873 | 0.576
323.15 K, x1 = 0.8937 | 856.9 | 0.525
323.15 K, x1 = 1 | 842.3 | 0.483
333.15 K, x1 = 0.094 | 979.51 | 0.932
333.15 K, x1 = 0.1901 | 962.67 | 0.868
333.15 K, x1 = 0.2859 | 945.85 | 0.801
333.15 K, x1 = 0.3839 | 929.24 | 0.735
333.15 K, x1 = 0.4839 | 912.7 | 0.671
333.15 K, x1 = 0.5835 | 896.46 | 0.618
333.15 K, x1 = 0.6854 | 880.17 | 0.565
333.15 K, x1 = 0.7888 | 864 | 0.52
333.15 K, x1 = 0.8937 | 847.93 | 0.474
333.15 K, x1 = 1 | 833.34 | 0.437
343.15 K, x1 = 0.094 | 970.56 | 0.833
343.15 K, x1 = 0.1901 | 953.71 | 0.774
343.15 K, x1 = 0.2859 | 936.87 | 0.714
343.15 K, x1 = 0.3839 | 920.25 | 0.658
343.15 K, x1 = 0.4839 | 903.71 | 0.603
343.15 K, x1 = 0.5835 | 887.45 | 0.559
343.15 K, x1 = 0.6854 | 871.13 | 0.514
343.15 K, x1 = 0.7888 | 854.97 | 0.472
343.15 K, x1 = 0.8937 | 838.91 | 0.43
343.15 K, x1 = 1 | 824.26 | 0.397
353.15 K, x1 = 0.094 | 961.56 | 0.746
353.15 K, x1 = 0.1901 | 944.7 | 0.695
353.15 K, x1 = 0.2859 | 927.86 | 0.643
353.15 K, x1 = 0.3839 | 911.2 | 0.596
353.15 K, x1 = 0.4839 | 894.64 | 0.547
353.15 K, x1 = 0.5835 | 878.35 | 0.505
353.15 K, x1 = 0.6854 | 862.01 | 0.468
353.15 K, x1 = 0.7888 | 845.86 | 0.43
353.15 K, x1 = 0.8937 | 829.76 | 0.391
353.15 K, x1 = 1 | 815.18 | 0.366
